For data set [1], the system named is polymerized/free Actin in Sertoli cells. Briefly: G-Actin/F-actin polymerization test (ultracentrifugation, Western blot). It counts as cell-based, SD rat. The conditions noted are these: after PFOS treatment. From the text:
(§1) A total of 10 male SD rats at the age of 20 days were sacrificed and testes were collected. The testicular envelope and free seminiferous tubules were removed, and the remaining tissue was cut to 1 mm^3 with scissors and then digested successively with trypsin, protease inhibitor, collagenase, hyaluronidase, and other enzymes. Cell masses obtained from digestion were pipetted up and down with a glass Pasteur pipette and then subjected to density gradient centrifugation, and finally the volume of precipitated cells was measured and converted into the number of cells. Finally, the cells were cultivated in an F12/DMEM cell culture medium with human transferrin (5 μg/mL), bovine insulin (10 μg/mL), bacitracin (5 μg/mL), epithelial growth factor (EGF) (2.5 ng/mL), and the like. The cells were cultivated at 5% CO2 and 35° C. to obtain primary Sertoli cells.
Isolation and cultivation of cells were conducted according to the method in Example 2, and obtained cells were inoculated in a prepared 6-well plate. Cells in each group were collected immediately after the experiment ended. Related Actin and Tubulin polymerization tests were conducted on cells in the DEP peptide overexpression group and cells in the empty plasmid transfection group using G-Actin/F-actin polymerization detection kit (G-Actin/F-actin In Vivo Assay Biochem Kit, BK037, Cytoskeleton, Inc) and Microtubule/Tubulin polymerization detection kit (Microtubule/Tubulin In Vivo Assay Biochem Kit, BK038, Cytoskeleton, Inc). Related detection methods can refer to product descriptions. The main purpose of these tests is to separate polymerized cytoskeleton proteins (F-actin and Microtubule) and free monomeric cytoskeleton proteins (G-actin and Tubulin) in a cell lysate by ultracentrifugation. Then the polymerized cytoskeleton protein (a precipitate obtained from the ultracentrifugation) and the monomeric cytoskeleton protein (a supernatant obtained from the ultracentrifugation) in the cell lysate system were detected separately by Western blot. […]
(Immunoblotting shows a protein as a band on a membrane.)

For data set [2] the following is noted: cited from earlier work.
For another data set, the system named is Sertoli cells. Briefly: IF staining of tight junction-associated protein ZO-1 in Sertoli cells in vitro. It counts as cell-based, SD rat. As to conditions: PFOS 20 μM for 24 h, empty plasmid transfection group, day 6, vs blank control group.
Text: as §1, with “Sertoli cells. […]” for “Sertoli cells.”
In order to observe the tight junction morphology among Sertoli cells cultivated in vitro, IF staining (green fluorescent) was conducted using an antibody for the Sertoli cell tight junction-associated protein ZO-1 (ThermoFisher, 61-7300), and the nucleus was stained with DAPI (blue fluorescence) after the above staining. After mounting, a fluorescence microscope was used to observe and take pictures.

Data set [3] deals with polymerized/free Tubulin in Sertoli cells. Briefly: Microtubule/Tubulin polymerization test (ultracentrifugation, Western blot). It counts as cell-based, SD rat. As to conditions: after PFOS treatment.
Text: as §1
Isolation and cultivation of cells were conducted according to the method in Example 2, and obtained cells were inoculated in a prepared 6-well plate. Cells in each group were collected immediately after the experiment ended. […] Then the polymerized cytoskeleton protein (a precipitate obtained from the ultracentrifugation) and the monomeric cytoskeleton protein (a supernatant obtained from the ultracentrifugation) in the cell lysate system were detected separately by Western blot. […]

The mark [4] stands for this setting: pCI-neo empty plasmid transfection group.

Take `O=S(=O)(O)C(F)(F)C(F)(F)C(F)(F)C(F)(F)C(F)(F)C(F)(F)C(F)(F)C(F)(F)F` [PFOS, Perfluorooctane sulphonate]: in data set [1] (setting [4]), the “F-actin level (precipitate of ultracentrifugation, Western blot)” value is “low, which was almost comparable to that in the negative control group”. Further, the human metabolic half-life result in data set [2] was “more than 5 years”. For the same molecule, in the data set on Sertoli cells, the “cell-cell junction interface (ZO-1 IF staining)” value is given as “significantly damaged”. Besides, in data set [3] (setting [4]), the “Microtubule level (precipitate of ultracentrifugation, Western blot)” value is “low, which was almost comparable to that in the negative control group”.

B1: DEP peptide: Dvl3-DEP peptide with amino acid sequence SEQ ID NO. 1, overexpressed in Sertoli cells (protein)
chain: PESGLEVRDRMWLKITIPNAFIGSDVVDWLYHNVEGFTDRREARKYASNLLKAGFIRHTVNKITFSEQCYYIFGD
modifications: amino acid sequence of Dvl3-DEP peptide
notes: 1, overexpressed in Sertoli cells
Consider B1, for which, in data set [1] (DEP peptide overexpression group, positive control 0.1 uM phalloidin), the “F-actin level (precipitate of ultracentrifugation, Western blot)” value is given as “lower than that in the positive control group but significantly higher than that in the empty plasmid transfection group”. In addition, in data set [1] (empty plasmid transfection group vs DEP peptide overexpression group), the “free G-actin content in the cell lysate supernatant (Western blot)” value is listed as “empty plasmid transfection group was higher than that of the DEP peptide overexpression group”. Moreover, the “Microtubule level (precipitate of ultracentrifugation, Western blot)” value in data set [3] (DEP peptide overexpression group, positive control 20 uM paclitaxel) was “lower than that in the positive control group but significantly higher than that in the empty plasmid transfection group”.

The values above are taken from patent US20220193189A1, “USE OF Dvl3-DEP PEPTIDE IN PREPARATION OF MEDICAMENT FOR REPAIRING SERTOLI CELL INJURY IN TESTES” (The Second Affiliated Hospital and Yuying Children's …, priority 2020, published 2022).
